Results from PubChem BioAssay AID256 (DTP/NCI, 2004).
“And” between values parts separate entries of the source, which are not always exact repeats. Identical values can stand only once. Inconclusive results and toxic doses are left out. The calls were made as follows: active = survival T/C of 150% or more; inactive = T/C below 125% in these data.

Test system: CD2F1 mice, L1210 leukemia ip, survival T/C
Experiment: NCI In Vivo Anticancer Drug Screen. Data for tumor model L1210 Leukemia (intraperitoneal) in CD2F1 (CDF1) mice
Conditions: endpoint: mean survival time, higher = longer survival
Summary of the method: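 Vehicle-treated tumor-bearing mice served as controls (C) for compound-treated mice (T). Reported figure is T divided by C.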

[1] = dose: 100.0 mg/kg/injection, schedule: Q01DX001 (ip), vehicle: saline
[2] = dose: 200.0 mg/kg/injection, schedule: Q01DX001 (ip), vehicle: saline
[3] = dose: 400.0 mg/kg/injection, schedule: Q01DX001 (ip), vehicle: saline
[4] = dose: 100.0 mg/kg/injection, schedule: Q04DX003 (ip), vehicle: saline
[5] = dose: 200.0 mg/kg/injection, schedule: Q04DX003 (ip), vehicle: saline
[6] = dose: 400.0 mg/kg/injection, schedule: Q04DX003 (ip), vehicle: saline
[7] = dose: 12.5 mg/kg/injection, schedule: Q01DX009 (ip), vehicle: saline with Tween-80
[8] = dose: 25.0 mg/kg/injection, schedule: Q01DX009 (ip), vehicle: saline with Tween-80
[9] = dose: 50.0 mg/kg/injection, schedule: Q01DX009 (ip), vehicle: saline with Tween-80
[10] = dose: 6.25 mg/kg/injection, schedule: Q01DX009 (ip), vehicle: saline with Tween-80
[11] = dose: 100.0 mg/kg/injection, schedule: Q01DX009 (ip), vehicle: saline with Tween-80
[12] = dose: 200.0 mg/kg/injection, schedule: Q01DX009 (ip), vehicle: saline with Tween-80

Measured: T/C

NC(=S)S
inactive: dose: 100.0 mg/kg/injection, schedule: Q04DX002 (ip), vehicle: saline with Tween-80 102 % of control | dose: 200.0 mg/kg/injection, schedule: Q04DX002 (ip), vehicle: saline with Tween-80 113 % of control | dose: 400.0 mg/kg/injection, schedule: Q04DX002 (ip), vehicle: saline with Tween-80 102 % of control

O=C(O)c1cc2ccccc2s1
inactive: [1] 98 % of control | [2] 96 % of control | [3] 92 % of control

O=C1CC2CC=CCC2C(=O)O1 (stereo unspecified)
inactive: dose: 75.0 mg/kg/injection, schedule: Q01DX001 (ip), vehicle: saline 101 % of control | dose: 150.0 mg/kg/injection, schedule: Q01DX001 (ip), vehicle: saline 98 % of control

CC1=CCCC1
inactive: [4] 98 % of control | [5] 101 % of control | [6] 95 % of control

O=c1ccn(C2CC3[O][Sn]([c]4ccccc4)([c]4ccccc4)[O]CC3O2)c(=O)[nH]1 (stereo unspecified)
inactive: dose: 6.25 mg/kg/injection, schedule: Q01DX005 (ip), vehicle: distilled water + Tween-80 104 % of control | dose: 12.5 mg/kg/injection, schedule: Q01DX005 (ip), vehicle: distilled water + Tween-80 98 % of control | dose: 25.0 mg/kg/injection, schedule: Q01DX005 (ip), vehicle: distilled water + Tween-80 108 % of control | dose: 100.0 mg/kg/injection, schedule: Q01DX005 (ip), vehicle: distilled water + Tween-80 90 % of control

O=C(O)c1cc2c([nH]1)=C(O)NN(O)C=2
inactive: dose: 12.5 mg/kg/injection, schedule: Q04DX002 (ip), vehicle: saline with Tween-80 101 % of control | dose: 25.0 mg/kg/injection, schedule: Q04DX002 (ip), vehicle: saline with Tween-80 101 % of control | dose: 50.0 mg/kg/injection, schedule: Q04DX002 (ip), vehicle: saline with Tween-80 111 % of control

CCCCCCCCCCCCCCCCN(C)c1ccc(C(=O)OC)cc1[N+](=O)[O-]
inactive: dose: 100.0 mg/kg/injection, schedule: Q01DX009 (ip), vehicle: Klucel (hydroxypropylcellulose) (HPC) 97 % of control | [4] 98 % of control | dose: 200.0 mg/kg/injection, schedule: Q01DX009 (ip), vehicle: Klucel (hydroxypropylcellulose) (HPC) 101 % of control | [5] 91 % of control | dose: 400.0 mg/kg/injection, schedule: Q01DX009 (ip), vehicle: Klucel (hydroxypropylcellulose) (HPC) 97 % of control | [6] 95 % of control

Nc1nc2c(c(=O)[nH]1)N(Cc1c[nH]c(=O)[nH]c1=O)C(CNc1ccc(C(=O)NC(CCC(=O)O)C(=O)O)cc1)CN2 (stereo unspecified)
inactive: dose: 100.0 mg/kg/injection, schedule: Q01DX001 (ip), vehicle: saline with Tween-80 101 % of control | dose: 200.0 mg/kg/injection, schedule: Q01DX001 (ip), vehicle: saline with Tween-80 92 % of control | dose: 400.0 mg/kg/injection, schedule: Q01DX001 (ip), vehicle: saline with Tween-80 101 % of control

C[C@]12CCC(=O)C=C1CC[C@H]1[C@@H]3CC[C@](O)(C(=O)CF)[C@@]3(C)C[C@H](O)[C@@]12F
inactive: dose: 50.0 mg/kg/injection, schedule: Q01DX001 (sc), vehicle: saline sonified 103 % of control | dose: 50.0 mg/kg/injection, schedule: Q04DX003 (sc), vehicle: Klucel (hydroxypropylcellulose) (HPC) 104 % of control | dose: 100.0 mg/kg/injection, schedule: Q01DX001 (sc), vehicle: saline sonified 101 % of control | dose: 100.0 mg/kg/injection, schedule: Q04DX003 (sc), vehicle: Klucel (hydroxypropylcellulose) (HPC) 102 % of control | dose: 200.0 mg/kg/injection, schedule: Q01DX001 (sc), vehicle: saline sonified 103 % of control | dose: 200.0 mg/kg/injection, schedule: Q04DX003 (sc), vehicle: Klucel (hydroxypropylcellulose) (HPC) 104 % of control

N#Cc1ccc([N+](=O)[O-])o1
inactive: [7] 104 % of control | [8] 101 % of control | dose: 25.0 mg/kg/injection, schedule: Q04DX003 (ip), vehicle: saline with Tween-80 102 % of control | [9] 92 % of control | dose: 50.0 mg/kg/injection, schedule: Q04DX003 (ip), vehicle: saline with Tween-80 96 % of control

COc1ccc2nc3cc(Cl)ccc3c(NCCC[N+](C)(C)CCCCCCCCCC[N+](C)(C)CCCNc3c4ccc(Cl)cc4nc4ccc(OC)cc34)c2c1
inactive: [10] 105 % of control

C/C=C/COC1CCS(=O)(=O)C1 (stereo unspecified)
inactive: [9] 104 % of control | [11] 97 % of control | [12] 97 % of control

COC1=C(OC)C(=O)C(C/C=C(\C)CC/C=C(\C)CC/C=C(\C)CC/C=C(\C)CC/C=C(\C)CC/C=C(\C)CC/C=C(\C)CC/C=C(\C)CC/C=C(\C)CCC=C(C)C)=C(C)C1=O
inactive: [10] 116 % of control and 97 % of control | [7] 98 % of control and 100 % of control | [8] 94 % of control and 100 % of control | [9] 97 % of control and 106 % of control | [1] 96 % of control | [11] 94 % of control and 102 % of control | [2] 92 % of control | [12] 97 % of control and 100 % of control | [3] 94 % of control
